# Measured values as given in publication PMC6858373 (Scientific Reports, 2019).
# Read-outs that look alike come from different tables or passages of the source.
# Legend:
# [1] = biological target: T1, FGF14:Nav1.6 C-tail complex (Homo sapiens, UniProt Q92915+Q9UQD0); assay: Split-luciferase complementation assay (LCA) in Clone V double stable HEK293 cells; format: cell-based; details: for Split Luciferase Assay % Lum Set 1 / Split Luciferase Assay Z-score Set 1: biological replicate Set 1; for Split Luciferase Assay % Lum Set 1 / Split Luciferase Assay %Lum Set 2: normalized to on-plate 0.3% DMSO controls (n=16 per plate); for Split Luciferase Assay %Lum Set 2 / Split Luciferase Assay Z-score Set 2: biological replicate Set 2; for Split Luciferase Assay Z-score Set 1 / Split Luciferase Assay Z-score Set 2: normalized to on-plate 0.3% DMSO controls; for Split Luciferase Assay %Lum Avg: average of Set 1 and Set 2, normalized to 0.3% DMSO controls
# T1 construct: polymerase chain reaction (PCR) amplification of the FGF14 open reading frame (nt 1–855); C-terminal fragment of Nav1.6 (amino acids 1763–1976) fused with CD4ΔC-tail (amino acids 1–395); expressed in transfected cells
# [2] = biological target: full-length P. pyralis luciferase (Photinus pyralis, UniProt P08659, K549A/L550V/N119G/N50D/S548I); format: cell-based
# [3] = tested on: Clone V cells
# [4] = CC_NCI screening, LCA luminescence
# [5] = CC_NCI screening, full-length luciferase counter-screen luminescence, normalized to on-plate 0.3% DMSO controls
# [6] = CC_NCI screening, full-length luciferase counter-screen, normalized to on-plate 0.3% DMSO controls
# [7] = CC_NCI screening, normalized to on-plate 0.3% DMSO controls
# T1 sequence (Q92915 1-252 isoform Q92915-2): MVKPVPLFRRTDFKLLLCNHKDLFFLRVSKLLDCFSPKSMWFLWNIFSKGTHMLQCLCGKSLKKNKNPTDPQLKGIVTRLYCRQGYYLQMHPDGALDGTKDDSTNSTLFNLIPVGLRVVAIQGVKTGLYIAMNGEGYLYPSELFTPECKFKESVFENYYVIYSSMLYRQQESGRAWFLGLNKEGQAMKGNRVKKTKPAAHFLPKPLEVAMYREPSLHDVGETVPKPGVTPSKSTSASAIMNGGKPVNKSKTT
# T1 sequence (Q9UQD0 1763-1976 limits assumed): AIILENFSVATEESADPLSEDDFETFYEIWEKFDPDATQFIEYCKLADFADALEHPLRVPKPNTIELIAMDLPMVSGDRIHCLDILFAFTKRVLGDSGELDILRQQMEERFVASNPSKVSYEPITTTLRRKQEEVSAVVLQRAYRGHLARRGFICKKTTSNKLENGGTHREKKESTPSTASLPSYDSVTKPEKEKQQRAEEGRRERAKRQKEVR
# full-length P. pyralis luciferase, sequence (P08659 whole entry N50D/N119G/S548I/K549A/L550V, looked up): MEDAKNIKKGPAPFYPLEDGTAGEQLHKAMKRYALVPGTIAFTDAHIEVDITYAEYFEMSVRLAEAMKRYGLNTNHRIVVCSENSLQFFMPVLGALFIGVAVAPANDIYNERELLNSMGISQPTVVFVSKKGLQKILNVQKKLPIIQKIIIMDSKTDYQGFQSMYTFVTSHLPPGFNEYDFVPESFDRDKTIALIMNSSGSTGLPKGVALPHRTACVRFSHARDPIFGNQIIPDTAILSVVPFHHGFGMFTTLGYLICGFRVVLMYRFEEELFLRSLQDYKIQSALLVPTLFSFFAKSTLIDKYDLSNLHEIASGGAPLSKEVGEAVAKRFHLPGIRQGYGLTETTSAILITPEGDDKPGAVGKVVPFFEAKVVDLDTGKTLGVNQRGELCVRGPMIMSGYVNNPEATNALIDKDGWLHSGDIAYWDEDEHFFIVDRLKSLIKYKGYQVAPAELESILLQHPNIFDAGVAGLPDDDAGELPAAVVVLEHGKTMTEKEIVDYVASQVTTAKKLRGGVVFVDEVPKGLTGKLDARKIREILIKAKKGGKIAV
Compound,"Split Luciferase Assay % Lum Set 1 [1, 4]","Split Luciferase Assay %Lum Set 2 [1, 4]","Split Luciferase Assay Z-score Set 1 ([1]; CC_NCI screening, LCA)","Split Luciferase Assay Z-score Set 2 ([1]; CC_NCI screening, LCA)",Split Luciferase Assay %Lum Avg ([1]; CC_NCI screening),"Luciferase Assay % Lum [2, 5]","Luciferase Assay Z-score [2, 6]",Toxicity Assay % Fluor [3],Toxicity Assay Z-score [3],"Toxicity Assay % Fluor ([3]; human, 16 h, 30 µM)","Toxicity Assay Z-score ([3]; human, 16 h, 30 µM)",further results
Cc1ccc(Nc2nccc(N(C)c3ccc4c(C)n(C)nc4c3)n2)cc1S(N)(=O)=O.Cl [Pazopanib hydrochloride],13.37%,28.09%,-7.00,-5.85,20.73%,59.40%,-5.20,92.21%,-1.09,–,–,–
COc1cc(N2CCC(N3CCN(C)CC3)CC2)ccc1Nc1ncc(Cl)c(Nc2ccccc2S(=O)(=O)C(C)C)n1 [NVP TAE684],–,–,–,–,–,–,–,–,–,–,–,"Split Luciferase Assay Z-score Set 1 ([1]; CC_NCI screening): -7.35; Split Luciferase Assay % Lum Set 1 ([1]; CC_NCI screening): 9.02%; Split Luciferase Assay Z-score Set 2 ([1]; CC_NCI screening): -7.71; Split Luciferase Assay %Lum Set 2 ([1]; CC_NCI screening): 5.20%; Split Luciferase Assay %Lum Avg [1]: 7.11%; Luciferase Assay % Lum (full-length luciferase counter-screen) [2, 7]: 96.39%; Luciferase Assay Z-score (full-length luciferase counter-screen) [2, 7]: -0.46; Toxicity Assay % Fluor (CTB cell viability fluorescence) [3]: 37.86%; Toxicity Assay Z-score (CTB cell viability) [3]: -8.69"
Bleomycin sulfate,125.34%,143.56%,2.05,3.54,134.45%,94.27%,-0.73,80.17%,-2.77,–,–,–
Cc1nc2c(c(=O)[nH]1)CSCC2 [DR 2313],–,–,–,–,–,–,–,–,–,–,–,"Split Luciferase Assay Z-score Set 1 ([1]; CC_NCI screening): -1.11; Split Luciferase Assay % Lum Set 1 ([1]; CC_NCI screening): 86.21%; Split Luciferase Assay Z-score Set 2 ([1]; CC_NCI screening): -0.26; Split Luciferase Assay %Lum Set 2 ([1]; CC_NCI screening): 96.75%; Split Luciferase Assay %Lum Avg [1]: 91.48%; Luciferase Assay % Lum (full-length luciferase counter-screen) [2, 7]: 93.50%; Luciferase Assay Z-score (full-length luciferase counter-screen) [2, 7]: -0.83; Toxicity Assay % Fluor (CTB cell viability fluorescence) [3]: 106.28%; Toxicity Assay Z-score (CTB cell viability) [3]: 0.88"
C=CC(=O)Nc1cc2c(Nc3ccc(F)c(Cl)c3)ncnc2cc1OCCCN1CCOCC1 [CANERTINIB],28.59%,34.33%,-5.77,-5.34,31.46%,50.65%,-6.32,–,–,84.09%,-2.22,–
Cn1c(=O)n(-c2ccc(C(C)(C)C#N)cc2)c2c3cc(-c4cnc5ccccc5c4)ccc3ncc21 [BEZ 235],91.64%,100.91%,-0.68,0.07,96.28%,98.68%,-0.17,–,–,90.66%,-1.31,–
COc1cc2ncnc(Nc3ccc(F)c(Cl)c3)c2cc1OCCCN1CCOCC1 [Gefitinib],97.08%,102.99%,-0.24,0.24,100.03%,–,–,–,–,87.95%,-1.68,Luciferase Assay % Lum [2]: 85.80%
CNC(=O)c1ccccc1Sc1ccc2c(/C=C/c3ccccn3)n[nH]c2c1 [Axitinib],32.94%,31.21%,-5.42,-5.60,32.07%,24.49%,-9.67,91.66%,-1.17,–,–,–
CN(C)C(=N)N=C(N)N [METFORMIN],117.73%,114.43%,1.43,1.17,116.08%,–,–,–,–,91.06%,-1.25,Luciferase Assay % Lum [2]: 96.22%; Luciferase Assay Z-score [2]: -0.48
